Assay results from PMC3799893 (Recent results in cancer research. Fortschritte der …, 2013).

Target: MC1R on B16/F10 murine melanoma cells (Mus musculus, UniProt Q01727)
Experiment: In vitro competitive binding assay

Sequence of MC1R on B16/F10 murine melanoma cells (Q01727 whole entry): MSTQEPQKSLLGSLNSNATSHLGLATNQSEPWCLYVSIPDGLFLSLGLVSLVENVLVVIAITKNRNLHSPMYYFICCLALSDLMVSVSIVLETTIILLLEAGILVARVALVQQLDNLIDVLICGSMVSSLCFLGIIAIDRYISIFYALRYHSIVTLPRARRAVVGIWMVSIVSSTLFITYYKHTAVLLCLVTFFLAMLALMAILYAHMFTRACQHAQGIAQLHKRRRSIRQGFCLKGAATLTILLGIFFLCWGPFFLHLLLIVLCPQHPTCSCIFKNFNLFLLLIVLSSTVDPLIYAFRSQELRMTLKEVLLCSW

Compound: CSCC[C@H](NC(=O)[C@H](CO)NC(=O)[C@H](Cc1ccc(O)cc1)NC(=O)[C@H](CO)NC(=O)CN1CCN(CC(=O)O)CCN(CC(=O)O)CCN(CC(=O)O)CC1)C(=O)N[C@@H](CCC(=O)O)C(=O)N[C@@H](Cc1c[nH]cn1)C(=O)N[C@@H](Cc1ccccc1)C(=O)N[C@@H](CCCNC(=N)N)C(=O)N[C@@H](Cc1c[nH]c2ccccc12)C(=O)NCC(=O)N[C@@H](CCCCN)C(=O)N1CCC[C@H]1C(=O)N[C@H](C(N)=O)C(C)C [DOTA-a-MSH]
- IC50: 1.8 ± 0.3 nM
